Assay results from patent US10487349B2, “Use of a fluidic device” (GRADIENTECH AB, priority 2013, dated 2019).

Tests used:
[1] = in agarose matrix; cited from earlier work
E. coli K12 MG1655 = experiment: Microfluidic 3D culture matrix concentration-gradient antibiotic susceptibility test (CELLDIRECTOR Ruby); format: cell-based, Escherichia coli; details: E. coli K12 MG1655 in agarose 3D culture matrix; gradient ampicillin 20-0 μg/ml or spectinomycin 50-0 μg/ml
Description: Bacterium strain E. coli K12 MG1655 was cultured on a Luria broth (LB) plate. The E. coli cells were diluted by phosphate buffered saline (PBS) to OD600=0.1 as measured by a MULTISKAN® FC Microplate Photometer (Thermo Scientific). Same volumes of PBS with OD600=0.1 cells and low-melting temperature agarose were mixed together. A pipette with white tips was used to suck up 8 μl of the mixture and inject the mixture into the culture chamber of a microfluidic device CELLDIRECTOR® Ruby (Gradientech AB), see upper panel in FIG. 20. The fluid channel inputs of the microfluidic device were connected to fluid reservoirs comprising Muelle-Hinton medium and where one of the reservoirs also contained 20 μg/ml ampicillin. The speed of a pusher used to draw the medium into the fluid channels was set to 5 μl/min for 30 minutes and then to 2 μl/min for the rest of the time. […]
The pictures were cut to match a selected central portion of the culture chamber, see black box in FIGS. 17A and 18A. Image processing software was used to extract detected light intensity data from the pictures. A spatial growth situation distribution diagram was used to summarize the grey-scale values, i.e. detected light intensity values, of all the lines that are perpendicular to the direction of the gradient as the Y-axis with the concentration gradient as the X-axis. […]

SMILES	diffusion constant D [1]	resistance of the microorganism to the test substance, from width of the border zone (E. coli K12 MG1655)
CC1(C)S[C@@H]2[C@H](NC(=O)[C@H](N)c3ccccc3)C(=O)N2[C@H]1C(=O)O [ampicillin]	0.016 cm^2/h	no corresponding ampicillin resistance was detected
CN[C@@H]1[C@H](O)[C@H](NC)[C@H]2O[C@@]3(O)C(=O)C[C@@H](C)O[C@H]3O[C@@H]2[C@H]1O [spectinomycin]		presence of spectinomycin resistance
